The text below walks through data of US20240166598A1, “COMPOUNDS, COMPOSITIONS, AND METHODS OF USING THE SAME” (priority 2021, published 2024).

Broadly, the half-life is the time in which the quantity being followed falls by half. As a reminder, the EC50 is the concentration giving half of the maximal effect. In general, Papp A→B refers to the apparent permeability from the apical to the basolateral side of a cell layer. In general, Papp B→A refers to the apparent permeability from the basolateral to the apical side of a cell layer. The IC50 is the midpoint of a concentration-inhibition curve.

Data set [1] relates to SARS-CoV-2, Isolate USA-WA1/2020. As to the kind of experiment: microbe, parasite or virus in culture. It is filed as cell-based. Particulars: for EC50: Severe acute respiratory syndrome coronavirus 2, Vero C1008, read-out: EC50 against infectious SARS-CoV-2 (plaque formation).
The subject of data set [2] is Vero E6 cells. Particulars: African green monkey.
A short description of data set [3]: in vitro. Particulars: human, microsomes.
The conditions of data set [4]: for In vitro CIint / Scale-up CIint: human.
Data set [5] deals with T1, SARS CoV-2 PLpro (Severe acute respiratory syndrome coronavirus 2 (2019-nCoV) (SARS-CoV-2), UniProt P0DTD1). Nature of the data set: biochemical. It is filed as binding.
The target in data set [6] is T1, SARS CoV-2 PLpro. In kind it is biochemical. Particulars: 20 μM.
For data set [7], the target named is human USP7 (Homo sapiens (Human), UniProt Q93009). As to the kind of experiment: USP7 selectivity counter-assay (Ub-AMC). Particulars: catalytic domain of human USP7; up to 30 μM for CPI-169. In kind it is biochemical. Here is the method: Assay conditions were similar to the PLpro primary assay, with the following substitutions: USP7 assays contained 4 nM USP7 and 0.5 uM Ub-AMC (Boston Biochem); USP14 assays contained 1.7 uM USP14, 4 uM Ub-AMC, and the addition of 5% glycerol to Buffer B. PLpro activity with ISG15-AMC and Ub-AMC were assayed in a manner similar to the PLpro primary assay. PLpro and substrate concentrations were modified as follows: 80 nM PLpro was assayed with 0.5 uM Ub-AMC, and 4 nM PLpro was assayed with 0.5 uM ISG15-AMC.
human USP7, sequence (Q93009 214-521 limits assumed): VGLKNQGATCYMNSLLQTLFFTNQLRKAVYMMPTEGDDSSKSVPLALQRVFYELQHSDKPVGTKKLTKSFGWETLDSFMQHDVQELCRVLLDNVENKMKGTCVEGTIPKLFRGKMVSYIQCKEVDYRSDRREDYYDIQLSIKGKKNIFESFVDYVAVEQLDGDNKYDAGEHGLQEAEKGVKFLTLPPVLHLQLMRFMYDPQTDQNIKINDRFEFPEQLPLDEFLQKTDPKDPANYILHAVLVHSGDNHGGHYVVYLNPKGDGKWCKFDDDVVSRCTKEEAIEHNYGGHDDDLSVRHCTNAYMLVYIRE
Assay conditions were similar to the PLpro primary assay, with the following substitutions: USP7 assays contained 4 nM USP7 and 0.5 uM Ub-AMC (Boston Biochem); USP14 assays contained 1.7 uM USP14, 4 uM Ub-AMC, and the addition of 5% glycerol to Buffer B.PLpro activity with ISG15-AMC and Ub-AMC were assayed in a manner similar to the PLpro primary assay. PLpro and substrate concentrations were modified as follows: 80 nM PLpro was assayed with 0.5 uM Ub-AMC, and 4 nM PLpro was assayed with 0.5 μM ISG15-AMC.

Data set [8] in a line: in vitro. To be noted: human, Caco-2.
Data set [9] concerns SARS-CoV-2 USA/WA1/2020. Nature of the data set: microbe, parasite or virus in culture. To be noted: for IC50: Severe acute respiratory syndrome coronavirus 2, 48 h, read-out: IC50 (viral RNA by RT-qPCR). It is filed as cell-based. For orientation: Real-time PCR tracks product formation cycle by cycle.
Data set [10] relates to A549-hACE2 cells. Nature of the data set: Cytotoxicity in A549-hACE2 cells (CellTiter-Glo). To be noted: assay conditions. In general terms: In ATP-based viability assays light output follows the ATP content of the culture.

As to `Cc1ccc(NC2CNC2)cc1C(=O)N[C@H](C)c1cccc(-c2ccc(CN[C@H]3CC[C@@H](O)C3)s2)c1` (single isomer, unassigned) [XR8-89], the “antiviral activity, in words” value in [1] was “superior antiviral potency to GRL017”. Further, in data set [2], the “concentration at which no toxicity was observed” value was less than 50 µM.

In turn, `Cc1ccc(NC2CNC2)cc1C(=O)N[C@H](C)c1cccc(-c2cccs2)c1` (single isomer, unassigned) [ZN-3-80] returned a half-life in data set [3] of 4.1 h. In data set [4], the “In vitro CIint” value is recorded as 5.64 μL/min/mg protein and the “Scale-up CIint” value came to 7.07 mL/min/kg. In addition, the “stability in human liver microsome stability assays, in words” value in data set [4] (microsomes) is “more stable than GRL0617”. For the same compound, the Ave ka in data set [5] (SPR association rate, average of replicates) was 351000 M⁻¹ s⁻¹. This compound also came in with a ka1 in data set [5] (SPR association rate, replicate 1) of 291000 M⁻¹ s⁻¹. Further, the ka2 in data set [5] (SPR association rate, replicate 2) came to 334000 M⁻¹ s⁻¹. This compound had a ka3 in [5] (SPR association rate, replicate 3) of 303000 M⁻¹ s⁻¹. In data set [5] (SPR association rate, replicate 4), this compound had a ka4 of 477000 M⁻¹ s⁻¹. Besides, in [5] (SPR dissociation rate, average of replicates), the Ave kd came out at 0.327 s⁻¹. Also, the kd1 in [5] (SPR dissociation rate, replicate 1) came out at 0.318 s⁻¹. Also, the kd2 in [5] (SPR dissociation rate, replicate 2) stood at 0.369 s⁻¹. In [5] (SPR dissociation rate, replicate 3), the kd3 came to 0.290 s⁻¹. For the same compound, in data set [5] (SPR dissociation rate, replicate 4), the kd4 was found to be 0.332 s⁻¹.

On to `CC(C)c1cc(C(C)C)c(CC(=O)NS(=O)(=O)Oc2c(C(C)C)cccc2C(C)C)c(C(C)C)c1` [Avasimibe], for which, in [6], the “result in the PLpro screen, in words” value is recorded as “weak PLpro inhibitors”.

In the case of `CCS(=O)(=O)N1CCC([C@@H](C)n2c(C)c(C(=O)NCc3c(OC)cc(C)[nH]c3=O)c3ccccc32)CC1` [CPI-169], the “inhibition of USP7-catalyzed Ub-AMC hydrolysis” value in data set [7] is “not able to inhibit USP7 up to a concentration of 30 μM”.

For `Cc1ccc(N)cc1C(=O)N[C@H](C)c1cccc2ccccc12` [GRL0617, reference compound], the EC50 in data set [1] was 21700 ± 1600 nM. For the same compound, in data set [8], the Papp A→B is 12.4 ×10⁻⁶ cm/s and the Papp B→A is 12.9 ×10⁻⁶ cm/s. For the same compound, in [7], the “inhibition of USP7-catalyzed Ub-AMC hydrolysis” value is listed as “did not inhibit”. Besides, in data set [9], the IC50 was greater than 20000 nM.

Turning to `Cc1ccc(NC2CNC2)cc1C(=O)N[C@H](C)c1cccc(-c2ccc(CNC3CCCC3)s2)c1` [XR8-23], the “concentration at which cytotoxicity was not observed” value in [10] was less than 10 µM. This compound also returned a half-life in data set [3] of 3.92 h. For the same compound, in data set [4], the “In vitro CIint” value is reported as 5.89 μL/min/mg protein and the “Scale-up CIint” value was 7.38 mL/min/kg. Further, the “concentration at which no toxicity was observed” value in [2] is less than 50 µM. Also, in [8], the Papp A→B was 0.16 ×10⁻⁶ cm/s and the Papp B→A came out at 1.56 ×10⁻⁶ cm/s.

Consider `Cc1ccc(NC2CNC2)cc1C(=O)N[C@H](C)c1cccc(-c2ccc(CN3CCCC3)s2)c1` [XR8-24], for which the “concentration at which cytotoxicity was not observed” value in data set [10] was less than 50 µM. This compound also yielded a half-life in [3] of 2.41 h. In addition, in data set [4], the “In vitro CIint” value worked out at 9.60 μL/min/mg protein and the “Scale-up CIint” value was found to be 12.04 mL/min/kg. Moreover, the EC50 in [1] was 2500 ± 1900 nM. Also, the “concentration at which no toxicity was observed” value in data set [2] is less than 50 µM. For the same compound, in data set [8], the Papp A→B is 0.14 ×10⁻⁶ cm/s and the Papp B→A is 3.06 ×10⁻⁶ cm/s. The “effect of treatment on viral RNA versus remdesivir (10 μM)” value in data set [9] (20 μM) was “not significantly different from that of remdesivir”. In addition, the IC50 in [9] is 1200 ± 200 nM.

Regarding `CCOc1nc2cccc(C(=O)O)c2n1Cc1ccc(-c2ccccc2-c2nnn[nH]2)cc1` [candesartan], the “result in the PLpro screen, in words” value in [6] was “weak PLpro inhibitors”.
